“Also recorded” adds a separate entry of the source.
Assays:
RXRs = experiment: Binding to RXRs (summary)
RARs and RXRs [1] = experiment: Binding to RARs and RXRs (summary over all six receptors); conditions: RARα,β,γ and RXRα,β,γ
RARs and RXRs [2] = conditions: Heyman et al., Cell, 68:397 (1992); cited from earlier work
RARs and RXRs [3] = experiment: Binding to and modulating gene expression via RARs and RXRs; conditions: labeled retinoid

Row | Compound | binding to RXRs, in words (RXRs) | binding to / activity on RARs and RXRs, in words (RARs and RXRs [1]) | binding to / activity on RARs and RXRs, in words (RARs and RXRs [1]; listed as all-trans retinoic acid (ATRA)) | binding to / activity on RARs and RXRs, in words (RARs and RXRs [1]; listed as 9-cis retinoic acid) | binding to and modulating gene expression via the RARs and RXRs, in words (RARs and RXRs [2]) | binding with, and modulating gene expression from, both RARs and RXRs, in words (RARs and RXRs [3])
1 | CC1=C(/C=C/C(C)=C/C=C/C(C)=C/C(=O)O)C(C)(C)CCC1 [ATRA, all-trans retinoic acid] | does not bind to RXRs | only binds to the RARs | only active on RARα,β,γ | – | – | –
2 | CC1=C(/C=C/C(C)=C\C=C\C(C)=C\C(=O)O)C(C)(C)CCC1 [9-cis RA, (2E,4E,6Z,8E)-3.7-Dimethyl-9-(2,6,6-trimethylcyclohexen-1-yl)nona-2.4.6.8-tetraenoic acid] | – | active on all six known retinoid receptors | – | effectively binds to all six receptors; also recorded: binds to the RARs and RXRs with high affinity in a saturable and specific manner | capable of binding to and modulating gene expression via the RARs and RXRs | –
3 | [3H]C(/C=C(C)\C=C\C1=C(C)CCCC1(C)C)=C\C(C)=C\C(=O)O [monotritium-labeled 9-cis RA, (2E,4E,6Z,8E)-5-[^3 H]-3,7-Dimethyl-9-(2,6,6-trimethylcyclohexen-1-yl)nona-2,4,6,8-tetraenoic acid] | – | binds to all the known RARs and RXRs with approximately equal nanomolar affinities | – | – | – | capable of binding with, and modulating gene expression from, both RARs and RXRs

From patent US5508456A, “9-cis tritium-labeled retinoids and intermediates, methods for their synthesis and methods for their use in discovering retinoid X receptor ligands” (Ligand Pharmaceuticals Incorporated, priority 1994, dated 1996)
